Results from patent publication US10722520B2, “Heterocyclic compounds and their use in preventing or treating bacterial infections” (MUTABILIS, priority 2016, dated 2020).

Legend:
K. pneumoniae 6299 [1] = experiment: MIC of compound alone, broth microdilution; assay type: cell-based; conditions: Klebsiella pneumoniae, 6299, read-out: MIC compounds of the invention alone
How it was run: (§1)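 Step one, log-phase suspension set to 5×10^5 cfu/mL final in CA-MHB. Step two, incubation at 35° C under ambient air for 16-20 h. Step three, visual reading of the lowest growth-free concentration as MIC.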

P. aeruginosa CIP107051 [2] = experiment: MIC of compound alone, broth microdilution; assay type: cell-based; conditions: Pseudomonas aeruginosa, CIP107051, read-out: MIC compounds of the invention alone
How it was run: as §1

E. cloacae 260508 = experiment: MIC of ceftazidime (CAZ) at fixed concentration of compound (synergy), broth microdilution; assay type: cell-based; conditions: MIC of ceftazidime with compound fixed at 4 μg/mL; strain 260508 (E. cloacae)
How it was run: as §1

E. cloacae P99 = experiment: as above; assay type: cell-based; conditions: MIC of ceftazidime with compound fixed at 4 μg/mL; strain P99 (E. cloacae)
How it was run: as §1

E. cloacae UFR51 = experiment: as above; assay type: cell-based; conditions: MIC of ceftazidime with compound fixed at 4 μg/mL; strain UFR51 (E. cloacae)
How it was run: as §1

E. cloacae UFR70 = experiment: as above; assay type: cell-based; conditions: MIC of ceftazidime with compound fixed at 4 μg/mL; strain UFR70 (E. cloacae)
How it was run: as §1

E. cloacae UFR85 = experiment: as above; assay type: cell-based; conditions: MIC of ceftazidime with compound fixed at 4 μg/mL; strain UFR85 (E. cloacae)
How it was run: as §1

E. coli 131119 = experiment: as above; assay type: cell-based; conditions: MIC of ceftazidime with compound fixed at 4 μg/mL; strain 131119 (E. coli)
How it was run: as §1

E. coli 190317 = experiment: as above; assay type: cell-based; conditions: MIC of ceftazidime with compound fixed at 4 μg/mL; strain 190317 (E. coli)
How it was run: as §1

E. coli RGN238 = experiment: as above; assay type: cell-based; conditions: MIC of ceftazidime with compound fixed at 4 μg/mL; strain RGN238 (E. coli)
How it was run: as §1

E. coli UFR18 = experiment: as above; assay type: cell-based; conditions: MIC of ceftazidime with compound fixed at 4 μg/mL; strain UFR18 (E. coli)
How it was run: as §1

E. coli UFR32 = experiment: as above; assay type: cell-based; conditions: MIC of ceftazidime with compound fixed at 4 μg/mL; strain UFR32 (E. coli)
How it was run: as §1

E. coli UFR39 = experiment: as above; assay type: cell-based; conditions: MIC of ceftazidime with compound fixed at 4 μg/mL; strain UFR39 (E. coli)
How it was run: as §1

E. coli UFR41 = experiment: as above; assay type: cell-based; conditions: MIC of ceftazidime with compound fixed at 4 μg/mL; strain UFR41 (E. coli)
How it was run: as §1

E. coli UFR61O = experiment: as above; assay type: cell-based; conditions: MIC of ceftazidime with compound fixed at 4 μg/mL; strain UFR61O (E. coli)
How it was run: as §1

E. coli UFR74 = experiment: as above; assay type: cell-based; conditions: MIC of ceftazidime with compound fixed at 4 μg/mL; strain UFR74 (E. coli)
How it was run: as §1

K. oxytoca UFR21 = experiment: as above; assay type: cell-based; conditions: MIC of ceftazidime with compound fixed at 4 μg/mL; strain UFR21 (K. oxytoca)
How it was run: as §1

K. pneumoniae 160143 = experiment: as above; assay type: cell-based; conditions: MIC of ceftazidime with compound fixed at 4 μg/mL; strain 160143 (K. pneumoniae)
How it was run: as §1

K. pneumoniae 200047 = experiment: as above; assay type: cell-based; conditions: MIC of ceftazidime with compound fixed at 4 μg/mL; strain 200047 (K. pneumoniae)
How it was run: as §1

K. pneumoniae 6299 [3] = experiment: as above; assay type: cell-based; conditions: MIC of ceftazidime with compound fixed at 4 μg/mL; strain 6299 (K. pneumoniae)
How it was run: as §1

K. pneumoniae BAA-1898 = experiment: as above; assay type: cell-based; conditions: MIC of ceftazidime with compound fixed at 4 μg/mL; strain BAA-1898 (K. pneumoniae)
How it was run: as §1

K. pneumoniae UFR24 = experiment: as above; assay type: cell-based; conditions: MIC of ceftazidime with compound fixed at 4 μg/mL; strain UFR24 (K. pneumoniae)
How it was run: as §1

K. pneumoniae UFR68 = experiment: as above; assay type: cell-based; conditions: MIC of ceftazidime with compound fixed at 4 μg/mL; strain UFR68 (K. pneumoniae)
How it was run: as §1

K. pneumoniae UFR77 = experiment: as above; assay type: cell-based; conditions: MIC of ceftazidime with compound fixed at 4 μg/mL; strain UFR77 (K. pneumoniae)
How it was run: as §1

P. aeruginosa CIP107051 [4] = experiment: as above; assay type: cell-based; conditions: MIC of ceftazidime with compound fixed at 4 μg/mL; strain CIP107051 (P. aeruginosa)
How it was run: as §1

CMY-37 = CMY-37 (Citrobacter freundii, UniProt P05193); conditions: read-out: IC50 β-lactamase CMY-37; class (C); nitrocefin 200 μM, 30-min pre-incubation, enzyme 0.2 nM
Sequence of CMY-37 (P05193 21-381 limits assumed): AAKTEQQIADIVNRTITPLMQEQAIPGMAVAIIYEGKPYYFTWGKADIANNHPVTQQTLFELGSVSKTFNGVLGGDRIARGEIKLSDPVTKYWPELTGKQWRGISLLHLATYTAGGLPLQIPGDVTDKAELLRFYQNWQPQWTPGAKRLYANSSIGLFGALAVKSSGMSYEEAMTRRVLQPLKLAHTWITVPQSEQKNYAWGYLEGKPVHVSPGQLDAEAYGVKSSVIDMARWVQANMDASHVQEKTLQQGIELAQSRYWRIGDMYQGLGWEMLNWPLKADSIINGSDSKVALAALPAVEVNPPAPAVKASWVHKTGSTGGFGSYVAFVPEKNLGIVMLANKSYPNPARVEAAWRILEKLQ

O=C1N2CC(n3cccn3)=CC(C2)N1OC(F)(F)C(=O)[O-].[Li+] (centres unmarked) [Example 4, lithium difluoro-(7-oxo-3-pyrazol-1-yl-1,6-diaza-bicyclo[3.2.1]oct-3-en-6-yloxy)-acetate]
MIC (K. pneumoniae 6299 [1]): 16 µg/mL | MIC (P. aeruginosa CIP107051 [2]): > 32 µg/mL | MIC combination of CAZ and compounds of the invention at 4 μg/mL (E. cloacae 260508): ≤0.25 | MIC combination of CAZ and compounds of the invention at 4 μg/mL (E. cloacae P99): ≤0.25 | MIC combination of CAZ and compounds of the invention at 4 μg/mL (E. cloacae UFR51): <0.25 | MIC combination of CAZ and compounds of the invention at 4 μg/mL (E. cloacae UFR70): <0.25 | MIC combination of CAZ and compounds of the invention at 4 μg/mL (E. cloacae UFR85): 1 | MIC combination of CAZ and compounds of the invention at 4 μg/mL (E. coli 131119): <0.25 | MIC combination of CAZ and compounds of the invention at 4 μg/mL (E. coli 190317): <0.25 | MIC combination of CAZ and compounds of the invention at 4 μg/mL (E. coli RGN238): <0.25 | MIC combination of CAZ and compounds of the invention at 4 μg/mL (E. coli UFR18): <0.25 | MIC combination of CAZ and compounds of the invention at 4 μg/mL (E. coli UFR32): <0.25 | MIC combination of CAZ and compounds of the invention at 4 μg/mL (E. coli UFR39): <0.25 | MIC combination of CAZ and compounds of the invention at 4 μg/mL (E. coli UFR41): <0.25 | MIC combination of CAZ and compounds of the invention at 4 μg/mL (E. coli UFR61O): <0.25 | MIC combination of CAZ and compounds of the invention at 4 μg/mL (E. coli UFR74): <0.25 | MIC combination of CAZ and compounds of the invention at 4 μg/mL (K. oxytoca UFR21): 4 | MIC combination of CAZ and compounds of the invention at 4 μg/mL (K. pneumoniae 160143): <0.25 | MIC combination of CAZ and compounds of the invention at 4 μg/mL (K. pneumoniae 200047): <0.25 | MIC combination of CAZ and compounds of the invention at 4 μg/mL (K. pneumoniae 6299 [3]): ≤0.25 | MIC combination of CAZ and compounds of the invention at 4 μg/mL (K. pneumoniae BAA-1898): 0.5 | MIC combination of CAZ and compounds of the invention at 4 μg/mL (K. pneumoniae UFR24): 0.5 | MIC combination of CAZ and compounds of the invention at 4 μg/mL (K. pneumoniae UFR68): 4 | MIC combination of CAZ and compounds of the invention at 4 μg/mL (K. pneumoniae UFR77): <0.25 | MIC combination of CAZ and compounds of the invention at 4 μg/mL (P. aeruginosa CIP107051 [4]): 4 | IC50 (CMY-37): 0.15 µM
